Data as given in patent publication US10092541B2, “Methods for the treatment of diseases ameliorated by PDE4 inhibition using dosage titration of apremilast” (CELGENE CORPORATION, priority 2014, dated 2018).
Marks after values point to notes of the source that are not given here.

Key:
Format in all cases: in vivo, human
[1] = test system: patients with moderate to severe plaque psoriasis; assay: Esteem 1: randomized, double-blind, placebo controlled, multicenter clinical study in psoriasis; details: for PASI-75, %: primary endpoint
Method: In the study 844 patients were enrolled; patients ranged in age from 18 to 83 years, with an overall median age of 46 years. The mean baseline body surface area (BSA) involvement was 25.19% (median 21.0%), the mean baseline PASI score was 19.07 (median 16.80), and the proportion of patients with sPGA score of 3 (moderate) and 4 (severe) at Baseline were 70.0% and 29.8%, respectively. Patients were randomized to Apremilast, in an amount of 30 mg twice per day (after the initial dose titration schedule) or placebo for the first 16 weeks, and from Weeks 16 to 32, all patients received Apremilast in an amount of 30 mg twice per day.
Target Dose: 30 mg (po) BID
Day 1: 10 mg in the morning
Day 2: 10 mg morning; 10 mg after noon
Day 3: 10 mg morning; 20 mg after noon
Day 4: 20 mg morning; 20 mg after noon
Day 5: 20 mg morning; 30 mg after noon
During the Randomized Treatment Withdrawal Phase (Weeks 32-52), patients originally randomized to Apremilast who achieved at least a 75% reduction in PASI score (PASI-75) at Week 32 were re-randomized to either placebo or Apremilast 30 mg BID. Patients who were re-randomized to placebo and who lost PASI-75 response at Week 32 compared to Baseline, were retreated with Apremilast 30 mg BID.

peripheral whole blood = assay: Differential gene expression analyses (microarray) in atopic dermatitis patients
Method: As an exploratory end point to potentially identify immune pathways affected by apremilast, peripheral whole blood was obtained for differential gene expression analyses at baseline and after 3 (cohort 1) and 6 (cohort 2) months of treatment to determine apremilast's potential mechanism of action in patients with atopic dermatitis. RNA isolation and microarray analyses were performed in the Oregon Health and Science University Gene Microarray Shared Resource. Total RNA was isolated from PAXGene tubes using the PAXGene Blood RNA Isolation kit (QIAGEN Inc). RNA quantity was measured by spectrophotometric analysis; RNA quality was evaluated by size analysis on the Bioanalyzer 2100 (Agilent Technologies Inc). All samples passed RNA quality assessment review.
RNA samples were labeled using the OvationWTAPico Amplification and Labeling System (NuGEN Technologies Inc). Fifty nanograms of each sample were amplified with the Ovation WTA Pico kit, converted to sense complementary DNA (cDNA) with the WT-Ovation Exon Module, version 1, kit, and labeled with the Encore Biotin Module kit. Hybridization and array processing were performed as described in the NuGEN Encore Biotin Module User Guide http://www.nugeninc.com/tasks/sites/nugen/assets/File/user_guides/userguide_encore_biotin.pdf). Two micrograms of each labeled cDNA target werehybridized with the GeneChip Human Gene 1.0 ST array (Affymetrix) and scanned on the Affymetrix GeneChip 3000 Scanner. The array image was processed with Affymetrix Command Console (version 3.1.1). Data were normalized using the robust multichip average method.
Differential expression analyses were performed on 16 paired samples. All putatively differentially expressed genes were based on false discovery rate-adjusted P values<0.05. Based on the putative differentially expressed gene list, both enriched pathways and functional gene ontologic characteristics were identified (P<0.05 for hypergeometric test) in the GoStats package within the Bioconductor statistical programming environment (http://www.bioconductor.org).

[2] = test system: patients with moderate to severe atopic dermatitis; assay: Open-label pilot study of 2 doses of apremilast in adult atopic dermatitis; details: for DLQI scores, average reduction / EASI scores, average reduction / patients who reduced their IGA score by 1 U / average reduction in itch using a VAS / DLQI score, mean after treatment / EASI score, mean after treatment / VAS for pruritus, mean after treatment: 3 months; for average reduction in itch using a VAS: intent-to-treat; for EASI after treatment: from 21.1
[3] = 77 PASI 75 responders re-randomized to apremilast 30 mg BID at Week 32
[4] = Week 16, 30 mg twice daily, n = 562, LOCF
[5] = Week 16, 30 mg twice daily, n = 562, LOCF, listed as Apremilast
[6] = Week 16, 30 mg twice daily, patients with baseline DLQI >5, n = 459
[7] = Week 16, 30 mg twice daily, patients with nail psoriasis at baseline, n = 363
[8] = cohort 1, 20 mg twice a day, baseline vs 3 months
[9] = cohort 2, 30 mg twice a day, 6 months

SMILES: CCOc1cc([C@@H](CS(C)(=O)=O)N2C(=O)c3cccc(NC(C)=O)c3C2=O)ccc1OC [apremilast, (+)-2-[1-(3-ethoxy-4-methoxyphenyl)-2-methylsulfonylethyl]-4-acetylaminoisoindoline-1,3-dione]
- Non-overlapping confidence intervals vs placebo in mean percentage improvement in PASI from baseline, first detected ([1]; 30 mg twice daily): as early as Week 2
- Responses to apremilast from Weeks 16 to 32 ([1]; 30 mg twice daily): generally maintained
- regained PASI 75 response after re-treatment, % ([1]; 64 patients re-randomized to placebo who re-initiated apremilast before Week 52 after losing PASI 75): 70.3%
- PASI-75 response at Week 52, % [1, 3]: 61.0%
- at least 70% improvement in PASI score from baseline at Week 52, % [1, 3]: 75.3%
- Mean change in DLQI score [1, 4]: −6.6
- PASI-50, % [1, 4]: (58.7%)*
- PASI-90, % [1, 4]: (9.8%)*
- Percentage change in PASI score, mean (SD) [1, 4]: −52.1%
- Percentage change in PASI score, median (range) [1, 4]: −59.0%
- sPGA response (score 0 or 1 with at least two-point reduction), % [1, 4]: 21.7%
- sPGA response (score 0 or 1 with at least two-point reduction), % [1, 5]: (21.7%)*
- PASI-75, % [1, 4]: 33.1%
- PASI-75, % [1, 5]: (33.1%)*
- DLQI + PASI-50 response, % [1, 6]: (48.1%)*
- DLQI response (decrease of at least five points), % [1, 6]: (70.2%)*
- NAPSI-50, % [1, 7]: (33.3%)*
- Percentage change in NAPSI score, mean (SD) [1, 7]: −22.5%
- ScPGA score 0-1, % ([1]; Week 16, 30 mg twice daily, patients with scalp psoriasis (ScPGA at least 3) at baseline, n = 374): (46.5%)*
- Severity of the majority of adverse events ([1]; did not lead to discontinuation): mild to moderate
- 5 most common adverse events (AEs) ([1]; human, in vivo): diarrhea, nausea, upper respiratory tract infection, tension headache, and headache
- Discontinuation due to upper respiratory tract infection ([1]; human, in vivo): No patient discontinued
- Discontinuations due to AEs: diarrhea ([1]; human, in vivo): 0.8%
- Discontinuations due to AEs: headache ([1]; human, in vivo): 0.4%
- Discontinuations due to AEs: nausea ([1]; human, in vivo): 1.2%
- Discontinuations due to AEs: tension headache ([1]; human, in vivo): 0.2%
- Mean percentage change from baseline in PASI score at Week 52 ([1]; patients re-randomized to apremilast 30 mg BID at Week 32): 80.5%
- Median time to first loss of PASI 75 after re-randomization ([1]; patients re-randomized to apremilast at Week 32): 17.7 weeks
- signs and symptoms of psoriasis ([1]; study conclusion): significantly improved
- BAD (bcl-2 antagonist of cell death) phosphorylation pathway gene expression (peripheral whole blood; [8]): significant differential expression
- IL-12 signaling (gene ontologic analysis) (peripheral whole blood; [8]): significant differential expression
- cAMP response element binding (CREB) pathway gene expression (peripheral whole blood; [8]): significant differential expression
- chemokine-mediated signaling (gene ontologic analysis) (peripheral whole blood; [8]): significant differential expression
- cytoskeleton remodeling (gene ontologic analysis) (peripheral whole blood; [8]): significant differential expression
- regulation of immune complex clearing by monocytes and macrophages (gene ontologic analysis) (peripheral whole blood; [8]): significant differential expression
- CCR3 signaling in eosinophils gene expression (peripheral whole blood; cohort 2, 30 mg twice a day, baseline vs 6 months): significant differential expression
- DLQI after treatment ([2]; both cohorts combined, post hoc intent-to-treat, mean baseline 11.6): 4.7
- EASI score after treatment ([2]; both cohorts combined, post hoc intent-to-treat, mean baseline 24.8): 16.2
- VAS after treatment ([2]; both cohorts combined, post hoc intent-to-treat, mean baseline 52.0 mm): 31.7 mm
- time to statistically significant decline in pruritus ([2]; cohort 1, 20 mg twice a day): ≤ 2 weeks
- DLQI scores, average reduction ([2]; cohort 1, 20 mg twice a day): 55%
- EASI scores, average reduction ([2]; cohort 1, 20 mg twice a day): 19%
- patients who reduced their IGA score by 1 U ([2]; cohort 1, 20 mg twice a day, 6 patients): 1
- average reduction in itch using a VAS ([2]; cohort 1, 20 mg twice a day): 49%
- DLQI score, mean after treatment ([2]; cohort 1, 20 mg twice a day, mean baseline 14.2): 6.2
- EASI score, mean after treatment ([2]; cohort 1, 20 mg twice a day, mean baseline 30.9): 22.1
- VAS for pruritus, mean after treatment ([2]; cohort 1, 20 mg twice a day, mean baseline 62.3 mm): 30.5 mm
- time to statistically significant clinical improvement in atopic dermatitis ([2]; cohort 2, 30 mg twice a day): ≤ 2 weeks
- patients who achieved an IGA score of mild ([2]; cohort 2, 30 mg twice a day, 3-month time point): One patient
- DLQI scores, average reduction ([2]; cohort 2, 30 mg twice a day): 58%
- EASI scores, average reduction ([2]; cohort 2, 30 mg twice a day): 39%
- patients who reduced their IGA score by 1 U ([2]; cohort 2, 30 mg twice a day, 10 patients): Two of 10 patients
- average reduction in itch using a VAS ([2]; cohort 2, 30 mg twice a day): 25%
- VAS for pruritus, mean after treatment ([2]; cohort 2, 30 mg twice a day, baseline 45.8 mm): 32.4 mm
- DLQI score, mean after treatment ([2]; cohort 2, 30 mg twice a day, mean baseline 10.1): 3.8
- EASI score, mean after treatment ([2]; cohort 2, 30 mg twice a day, mean baseline 21.4): 13.2
- patients improved at least 1 U in the IGA, % [2, 9]: 50%
- patients improved at least 1 U in the IGA, number [2, 9]: Five patients
- patients who achieved an IGA of almost clear [2, 9]: 1
- patients who reached an IGA of mild [2, 9]: Four of these 5
- EASI after treatment ([2]; cohort 2, 30 mg twice a day, 6 months, intent to treat): 11.6
- VAS after treatment ([2]; cohort 2, 30 mg twice a day, 6 months, intent to treat, from 45.8 mm): 25.3 mm
- DLQI after treatment ([2]; cohort 2, 30 mg twice a day, 6 months, per protocol, from 10.1): 4.0
- EASI after treatment ([2]; cohort 2, 30 mg twice a day, 6 months, per protocol): 10.4
- VAS after treatment ([2]; cohort 2, 30 mg twice a day, 6 months, per protocol, from 45.8): 22.7
- patients who reached an IGA score of clear or almost clear ([2]; either cohort (20 mg or 30 mg twice a day), 3-month time point): No patient
